According to patent US4777143A, “Method of detecting carboxylic acids in a specimen” (priority 1986, dated 1988):
Where two headings read alike, the source gives them in different places.

How the values were obtained:
[1] = Water miscibility of solvents; type: physicochemical; design: key: -: Where phase separation was visible; +: otherwise; conditions: 0.5 ml water + 0.5 ml solvent
Method: Various solvents were tested for their utility with regard to (1) water miscibility, (2) guaiac solubility and (3) color development. Water miscibility was evaluated by admixing 0.5 ml of water with 0.5 ml each solvent, and noting any phase separation. Where phase separation was visible, a "-" appears in Table 2; otherwise, a "+" appears.

[2] = Guaiac solubility in solvents / reagent solubility in water
Method: Color developing reagent was prepared as follows. […] Four ml of a given solvent as indicated in Table 2 were added and the guaiac was allowed to dissolve to the extent possible.
Subsequently, 48 μl of 80% cumene hydroperoxide was added to each tube (except to that containing the water-only sample) to make a complete color developing reagent (solvent, chromogen, oxidant) for testing.

Row | GUAIAC SOLUBILITY [2] | Compound | WATER MISCIBILITY [1] | GUAIAC SOLUBILITY ([2]; noted visually) | solubility of cumene hydroperoxide in water ([2]; water)
1 |  | CC(Cl)(Cl)Cl [1,1,1-trichloroethane] | - | ++ | 
2 |  | CC(C)c1ccc(CO)cc1 [4-Isopropyl-Benzyl Alcohol] | - | +++ | 
3 | +++ | CC(=O)CC(C)(C)O [4-hydroxy, 4 methyl-pentanone] |  |  | 
4 |  | CC(C)=O [Acetone] | + | +++ | 
5 |  | CC(C)c1ccccc1 [Cumene] | - | + | 
6 |  | ClCCl [Dichloromethane] | - | ++ | 
7 | +++ | CCO [Ethanol] | + |  | 
8 |  | CCOC(C)=O [Ethyl Acetate] | - | ++ | 
9 |  | OCCO [Ethylene Glycol] | + | +++ | 
10 |  | CC(C)O [Isopropanol] | + | +++ | 
11 |  | CCC(C)=O [Methyl Ethyl Ketone] | + |  | 
12 |  | COC(=O)CC(C)=O [Methyl-Acetoacetate] | + | +++ | 
13 | ++ | CCCCCCCCOC(C)=O [Octyl Acetate] | - |  | 
14 |  | Cc1ccccc1 [Toluene] | - |  | 
15 |  | CC(C)(OO)c1ccccc1 [cumene hydroperoxide, reference compound] |  |  | essentially insoluble in water
16 |  | CCCCCCCO [n-Heptanol] | - | +++ | 
17 |  | CCCCCCO [n-Hexanol] | - |  | 
18 |  | CCCCCCCC [n-Octane] | - | - | 
19 | +++ | CCCCCCCCO [n-Octanol] | - |  | 
20 | +++ | CCCCCO [n-Pentanol] | - |  | 

Row | Compound | GUAIAC SOLUBILITY [2] | WATER MISCIBILITY [1] | GUAIAC SOLUBILITY ([2]; noted visually) | solubility of cumene hydroperoxide in water ([2]; water)
21 | OCc1ccccc1 [Benzyl Alcohol] | +++ | - |  | 
22 | Hexanes | - | - |  | 
